According to US20160045505A1, “COMPOUNDS AND COMPOSITIONS FOR THE TREATMENT OF PARASITIC DISEASES” (NOVARTIS AG, priority 2013, published 2016):
Read-outs that look alike come from different tables or passages of the source.

Experiments:
[1] = tested on: Trypanosoma brucei Lister 427 strain, bloodstream form; test: Assay for proliferation of kinetoplastid parasite Trypanosoma brucei (Cell Titer Glo, 48 hours); assay type: cell-based; details: Trypanosoma brucei, T. brucei Lister 427 bloodstream form, read-out: T. brucei EC50
Summary of the method: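 Bloodstream-form T. brucei Lister 427 in HMI-9 medium was exposed to compound (DMSO vehicle) for 48 hours at 37° C, 5% CO2. Parasite growth was read as ATP by CellTiter-Glo luminescence, with EC50 calculated from percent inhibition.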

[2] = tested on: L. donovani HU3 strain in mouse peritoneal macrophages; test: Assay for proliferation of Leishmania parasites in infected mouse peritoneal macrophages (SybrGreen staining, high-content imaging, 5 days); assay type: cell-based, Leishmania donovani; details: Leishmania donovani, Peritoneal macrophage, L. donovani in mouse peritoneal macrophages, read-out: L. donovani Macrophage EC50
[3] = tested on: Trypanosoma cruzi amastigotes (Tulahuen strain expressing Lac-Z) cultured in 3T3 fibroblast cells; test: microbe, parasite or virus in culture; assay type: cell-based; details: Trypanosoma cruzi, TULAHUEN, Fibroblast, T. cruzi amastigotes in 3T3 fibroblast cells, read-out: T cruzi EC50
[4] = tested on: Leishmania donovani axenic amastigote parasites; test: Leishmania donovani axenic amastigote proliferation assay (Cell TiterGlo luminescence, 2 day incubation); assay type: cell-based; details: Leishmania donovani, read-out: L. donovani amastigotes EC50
[5] = axenic amastigotes, inhibition of proliferation

Row | SMILES | EC50 [1] [nM] | EC50 [2] [nM] | EC50 [3] [nM] | EC50 ([4]; L. donovani axenic amastigotes) [nM] | EC50 ([1]; inhibition of proliferation) [nM] | EC50 ([2]; inhibition of proliferation) [nM] | EC50 ([3]; inhibition of proliferation) [nM] | EC50 [4, 5] [nM]
1 | Cc1nc(C)c(C(=O)Nc2ccc(F)c(-c3cn4cc(N(C)C(=O)OC(C)C)cnc4n3)c2)o1 [Compound 552] | 240 | 967 | 326 | 420 | – | – | – | –
2 | Cc1nc(C)c(C(=O)Nc2ccc(F)c(-c3cn4cc(NC(=O)C5CCOCC5)cnc4n3)c2)o1 [Compound 158] | – | – | – | – | 4100 | > 50000 | > 20000 | 1920
3 | Cc1nc(C)c(C(=O)Nc2ccc(F)c(-c3cn4cc(NCC(C)(C)C)cnc4n3)c2)o1 [Compound 465] | 153 | 289 | 146 | 329 | – | – | – | –
4 | Cc1nc(C)c(C(=O)Nc2ccc(F)c(-c3cn4cc(NC(=O)[C@H]5NCC[C@@H]5O)cnc4n3)c2)o1 [Compound 160] | – | – | – | – | 28700 | > 50000 | > 20000 | > 25000
5 | Cc1nc(C)c(C(=O)Nc2ccc(F)c(-c3cn4cc(NC5=NC(C)CO5)cnc4n3)c2)o1 (stereo not shown) [Compound 524] | 1000 | 9540 | 12600 | 3510 | – | – | – | –
6 | CC(C)OC(=O)Nc1cnc2nc(-c3cc(NC(=O)c4cnco4)ccc3Cl)cn2c1 [Compound 52] | – | – | – | – | 571 | 2740 | 1280 | 261
7 | Cc1nc(C)c(C(=O)Nc2ccc(F)c(-c3cn4cc(NC(=O)c5ncco5)cnc4n3)c2)o1 [Compound 188] | – | – | – | – | 185 | > 5600 | 1230 | 226
8 | CC(C)OC(=O)Nc1cnc2nc(-c3cc(NC(=O)NN)ccc3Cl)cn2c1 [Compound 257] | – | – | – | – | 4650 | > 33800 | 4050 | 9220
9 | Cc1nc(C)c(C(=O)Nc2ccc(F)c(-c3cn4cc(-c5ccc(F)cc5)cnc4n3)c2)o1 [Compound 396] | 42 | 88 | 17 | 55 | – | – | – | –
10 | Cc1cccc(-c2cnc3nc(-c4cc(NC(=O)c5oc(C)nc5C)ccc4F)cn3c2)n1 [Compound 376] | 158 | 256 | 96 | 85 | – | – | – | –
11 | CC1(C(=O)Nc2cnc3nc(-c4cc(NC(=O)N5CCCC5)ccc4F)cn3c2)CC(F)(F)C1 [Compound 146] | – | – | – | – | 236 | 7180 | > 20000 | 1050
12 | Cc1cc(C(=O)Nc2ccc(F)c(-c3cn4cc(NC(=O)OC(C)C)cnc4n3)c2)no1 [Compound 86] | – | – | – | – | 924 | > 50000 | > 20000 | > 25000
13 | O=C(Nc1ccc(F)c(-c2cn3cc(-c4ccccc4)cnc3n2)c1)N1CC[C@@H](F)C1 [Compound 409] | 4 | 61 | 5 | 19 | – | – | – | –
14 | Cc1nc(C)c(C(=O)Nc2ccc(F)c(-c3cn4cc(C5CCCC5)cnc4n3)c2)o1 [Compound 422] | 33 | 305 | 193 | 126 | – | – | – | –
15 | Cc1nc(C)c(C(=O)Nc2ccc(F)c(-c3cn4cc(C5=CCCO5)cnc4n3)c2)o1 [Compound 371] | – | – | – | – | 1470 | 2300 | 465 | 1650
16 | O=C(Nc1ccc(F)c(-c2cn3cc(Cl)cnc3n2)c1)N1CC(F)C1 [Compound 238] | – | – | – | – | 117 | 788 | 233 | 208
17 | Cc1nc(C)c(C(=O)Nc2ccc(F)c(-c3cn4cc(-c5cnn(C)c5)cnc4n3)c2)o1 [Compound 389] | 158 | 330 | 254 | 97 | – | – | – | –
18 | O=C(Nc1ccc(F)c(-c2cn3cc(C4CC4)cnc3n2)c1)N1CC(F)(F)C1 [Compound 604] | 51 | 41 | 46 | 22 | – | – | – | –
19 | O=C(Nc1ccc(F)c(-c2cn3cc(C4CC4)cnc3n2)c1)[C@H]1CC[C@@H](O)CC1 [Compound 598] | 4360 | 10300 | 2550 | 2770 | – | – | – | –
20 | Cc1nc(C)c(C(=O)Nc2ccc(F)c(-c3cn4cc(C#CCCN5CCCC(O)C5)cnc4n3)c2)o1 (stereo not shown) [Compound 545] | 3250 | 2130 | 7180 | 3900 | – | – | – | –
21 | Cc1nc(C)c(C(=O)Nc2ccc(F)c(-c3cn4cc(-c5ccc[nH]5)cnc4n3)c2)o1 [Compound 573] | 107 | 168 | 462 | 155 | – | – | – | –
22 | CCn1ccnc1C(=O)Nc1cnc2nc(-c3cc(NC(=O)N4CCCC4)ccc3F)cn2c1 [Compound 142] | – | – | – | – | 121 | 506 | 179 | 63

Row | SMILES | EC50 [1] [nM] | EC50 [2] [nM] | EC50 [3] [nM] | EC50 ([4]; L. donovani axenic amastigotes) [nM] | EC50 ([1]; inhibition of proliferation) [nM] | EC50 ([2]; inhibition of proliferation) [nM] | EC50 ([3]; inhibition of proliferation) [nM] | EC50 [4, 5] [nM]
23 | O=C(Nc1ccc(F)c(-c2cn3cc(Cl)cnc3n2)c1)N1CCC1 [Compound 237] | – | – | – | – | 122 | 877 | 229 | 217
24 | CC(C)Nc1cnc2nc(-c3cc(NC(=O)N4CCC4)ccc3F)cn2c1 [Compound 564] | 56 | 290 | 204 | 212 | – | – | – | –
25 | Cc1nc(C)c(C(=O)Nc2ccc(F)c(-c3cn4cc(NS(=O)(=O)C(C)C)cnc4n3)c2)o1 [Compound 315, N-(4-fluoro-3-(6-(1-methylethylsulfonamido)imidazo[1,2-a]pyrimidin-2-yl)phenyl)-2,4-dimethyloxazole-5-carboxamide] | – | – | – | – | 4410 | 19100 | > 19800 | 2520
26 | Cc1nc(C)c(C(=O)Nc2ccc(F)c(-c3cn4cc(N5CCC[C@@H]5C(F)(F)F)cnc4n3)c2)o1 [Compound 492] | 472 | 1520 | 310 | 841 | – | – | – | –
27 | Cc1ccc(C(=O)Nc2ccc(F)c(-c3cn4cc(NC(=O)OC(C)C)cnc4n3)c2)o1 [Compound 80] | – | – | – | – | 59 | 244 | 63 | 89
28 | Cc1nc(C)c(C(=O)Nc2ccc(F)c(-c3cn4cc(-c5ccccc5N)cnc4n3)c2)o1 [Compound 372] | 80 | 242 | 95 | 221 | – | – | – | –
29 | Cc1cccnc1-c1cnc2nc(-c3cc(N)ccc3F)cn2c1 [Compound 594, 4-fluoro-3-(6-(3-methylpyridin-2-yl)imidazo[1,2-a]pyrimidin-2-yl)aniline] | > 50000 | > 32800 | > 19900 | > 25000 | – | – | – | –
30 | Cc1nc(C)c(C(=O)Nc2ccc(Cl)c(-c3cn4cc(NC(=O)OC(C)C)cnc4n3)c2)o1 [Compound 45] | – | – | – | – | 522 | 452 | 400 | 226
31 | Cc1nc(C)c(C(=O)Nc2ccc(F)c(-c3cn4cc(C(F)F)cnc4n3)c2)o1 [Compound 208] | – | – | – | – | 108 | 445 | 100 | 134
32 | Cc1nc(C)c(C(=O)Nc2ccc(F)c(-c3cn4cc(NC(=O)C5CNCCO5)cnc4n3)c2)o1 (stereo not shown) [Compound 179] | – | – | – | – | 6960 | > 45800 | > 20000 | > 25000
33 | O=C(Nc1ccc(F)c(-c2cn3cc(C4CC4)cnc3n2)c1)N1CC[C@@H](F)C1 [Compound 605] | 13 | 59 | 16 | 21 | – | – | – | –
34 | Cc1nc(C)c(C(=O)N(c2ccc(F)c(-c3cn4cc(OC(C)C)cnc4n3)c2)C(C)C)o1 [Compound 612] | 12400 | 1060 | 3810 | 9400 | – | – | – | –
35 | Cc1nc(C)c(C(=O)Nc2ccc(F)c(-c3cn4cc(NC(=O)[C@](C)(O)C(F)(F)F)cnc4n3)c2)o1 [Compound 163] | – | – | – | – | 399 | 4450 | 10900 | 830
36 | CC(=O)c1ccc(-c2cnc3nc(-c4cc(NC(=O)c5oc(C)nc5C)ccc4F)cn3c2)cn1 [Compound 437] | 403 | 1250 | 682 | 80 | – | – | – | –
37 | Cc1nc(C)c(C(=O)Nc2ccc(F)c(-c3cn4cc(-c5cnn(CCN6CCOCC6)c5)cnc4n3)c2)o1 [Compound 388] | 415 | 2950 | 3530 | 1010 | – | – | – | –
38 | O=C(Nc1ccc(F)c(-c2cn3cc(OCCN4CCOCC4)cnc3n2)c1)N1CCCC1 [Compound 563] | > 50000 | 8500 | 6700 | 14200 | – | – | – | –
39 | Cc1nc(C)c(C(=O)Nc2cccc(-c3cn4cc(C5=CCOCC5)cnc4n3)c2)o1 [Compound 335] | – | – | – | – | 114 | 521 | 407 | 178
40 | CC(=O)Nc1ncc(C(=O)Nc2ccc(Cl)c(-c3cn4cc(NC(=O)OC(C)C)cnc4n3)c2)s1 [Compound 50] | – | – | – | – | > 50000 | > 50000 | > 20000 | > 25000
41 | CC(C)OC(=O)Nc1cnc2nc(-c3cc(NC(=O)N4CC(F)(F)C(F)(F)C4)ccc3Cl)cn2c1 [Compound 266] | – | – | – | – | 1450 | 3370 | 1160 | 1260
42 | CC(C)OC(=O)Nc1cnc2nc(-c3cc(NC(=O)CN4CCCC4)ccc3F)cn2c1 [Compound 110] | – | – | – | – | 27700 | 8100 | 9590 | > 25000
43 | Cc1nc(C)c(C(=O)Nc2ccc(F)c(-c3cn4cc(NC5=N[C@H]6CCCC[C@@H]6O5)cnc4n3)c2)o1 [Compound 510] | 4010 | 8130 | 2610 | 1600 | – | – | – | –
